“And” between values parts separate entries of the source, which are not always exact repeats. Equal values may be shown once. Read-outs that look alike come from different tables or passages of the source.
Key:
[1] = system: Housefly Larvae; assay: Inhibition of pupation of newly emerged housefly larvae; format: in vivo; details: Musca domestica, 168 h, one week, 27° C., corrected by Abbott's formula
Protocol: In this test system newly emerged housefly larvae are grown on an undefined medium of fermented whole milk and dried beef blood. Compounds are added to the milk and activity is determined by the failure of larvae to pupate.
The test is run in 1 oz. plastic medicine cups. Paper toweling is cut in pieces approximately 3.5×10 cm. Three of these pieces are folded accordion style and placed in each paper cup. A piece of masking tape is placed on the outside of the cup to facilitate numbering. Cups should be prepared prior to the day the test is to begin.
Newly hatched housefly larvae are obtained on the morning the test is to begin. The eggs are laid the night before and larvae usually begin to hatch by 9-10 AM the following morning.
Twenty-four hours before the initiation of the test, one half gallon of whole milk is divided into 5 1-liter beakers and placed in an incubator at 39° C.
The morning of the test, one 250 ml beaker is labeled for each treatment. The fermented milk is removed from the incubator, stirred and poured into each of the small beakers. The beakers are then returned to the incubator and 1-2 g of dried beef blood added to each beaker to distribute blood which will not dissolve. The beakers are again returned to the incubator.
Doses of compounds are calculated so that 0.1 ml contains the amount of compound to be added to 100 ml of milk. Compounds should be dissolved in acetone. 100 μl of acetone is added to each control beaker.
Each beaker is removed from incubator and placed on a magnetic stirrer. The compound is added and thoroughly mixed. Then 20 ml portions are removed and added to labelled test cups (4 reps/treatment). Cups are placed in stainless steel tray until all are prepared. […] The tray containing the cups are then placed in a plastic bag and maintained at room temperature.
The media that the fly eggs are laid in is spread out in a green or black pan so that larvae can be observed. Working under an illuminated magnifier 20 larvae are transferred into each cup using a fine paint brush. Each cup is then sealed in a Zip-Loc sandwich bag with a few pinholes in it.
Bags containing cups are placed on a flat tray and placed in a 27° C. incubator for one week. The majority of the larvae will have pupated at this point.
Trays are then removed from the incubator and the number of pupae in each bag recorded. The paper toweling is removed and examined closely for any pupae that have remained in the cups. Most of the pupae will be loose in the bag. A note is also made of any dead or live developed larvae. If there are larvae that appear capable of pupating, the bag may be returned to the incubator for a day to see if they will pupate.
The percent development of pupae is then calculated. The final results are expressed as a percent inhibition of pupation and are corrected for control mortality by using Abbott's formula.

[2] = system: Ctenocephalides felis; assay: Filter paper contact test against the cat flea; format: in vivo; details: 20.0 μg/cm^2, 24 hour
Protocol: This test is conducted in the same manner as the mite filter paper test described in Example 2 with the following exceptions:
(1) only one filter paper is used on the bottom of the dish;
(2) Unfed fleas that have emerged from pupae within the last 24 hours are used for the test. Fleas are initially collected in glass vials and then temporarily immobilized by placing the vials in ice. Once the fleas are no longer active, vials are opened and fleas dumped into Petri dishes. The number of fleas per dish will vary but generally contain 8-12 fleas.
(3) Dishes are held for 24 hours until the mortality counts are made;
(4) Edges of the Petri dish are sealed with Scotch tape to prevent escape of the fleas; and
(5) Dishes are not opened when test is read but fleas are observed under dissecting scope in the dishes. Some fleas will move under the filter paper so dish should be inverted to check. Fleas are considered dead if they cannot remain upright and jump.

[3] = system: Caenorhabditis elegans; assay: Nematicidal activity against C. elegans (motility rating); format: in vivo, C. elegans (Bristol strain); design: scale not given here; details: read at 4 and 24 hours post-immersion
Protocol: Cultures of C. elegans (Bristol strain from J. Lewis) are maintained on E. coli lawns on NG Agar Plates at 20° C. New cultures are established weekly.
Nematodes for testing are washed from 4-5 day old cultures using Fresh Ascaris Ringers Solution (FARS). The worms are further washed with FARS,-containing gentamycin, to reduce bacterial contamination and centrifuged to separate worms from wash solution. This procedure is repeated three times. The washed worms are then added to C. brigassae Maintenance Medium (CbMM), from GIBCOa to which is added gentamycin (600 units/ml) and mycostatin (0.5 mg/ml).
Compounds are dissolved in acetone and made up to volume with equal parts of water. The final test concentration of each compound in the mixture is 150 ppm. The test material is micropipetted (25 ul) into a single well of a 96-well sterile tissue culture plate (COSTAR)^b and the solvent allowed to evaporate. These "treated" plates are used immediately or stored in a refrigerator without apparent adverse effects on the compounds.
A freshly prepared volume ([…]) of C. elegans in CbMM is micropipetted into each treated well and several control wells per plate. Culture plates are incubated at 20° C.
Observations for efficacy are made under a dissecting microscope at 4 and 24 hours post-immersion. Immediately prior to reading the plate, it is gently tapped to stimulate the movement of the worms. Activity is judged based on the drug effects on motility of the adults and larvae. […] Other factors indicating activity are easily noted such as death, rigor mortis, contraction, coiling, paralysis, abnormal twitching, reduced worm population in 48 hours and other deviation from normal behavior.
Day 0 Inoculate E. Coli-NG Agar Dish With 30-40
Day 4 Harvest New C. Elegans Population
Add C. Elegans (25-100 µL) To "Medicated"
Observe for Activity at 4 hours Post-
Day 5 Observe For Activity

[4] = system: Psoroptes cuniculi; assay: Filter paper contact test against Psoroptes cuniculi (Rabbit Ear Mite); format: in vivo; details: Psoroptes ovis
Protocol: On the day prior to the test initiation the drugs to be evaluated are dissolved in acetone and diluted to the desired concentrations. The concentration is calculated so that 400 μl contains the amount of test compound to be placed on each filter paper. 400 μl of this solution is pipetted onto a top (3.7 cm dia.) and bottom (3.5 cm dia.) filter paper disks which are then placed on a ceramic plate to dry. There is a rough and smooth side to the filter paper. Drug should be applied to the rough side which is placed up while drying. When dry the two disks are placed in a Petri dish with the rough sides facing in, separated by one 3 mm glass bead. Dishes are held at room temperature overnight if done the day before the test.
Scab (containing mites) is collected from the ears of infested rabbits the morning of the test. This material is placed in a large Petri dish under an illuminated magnifier. Mites crawl out of the scab and are easily collected on the point of a dissecting needle or one prong of a pair of fine forceps. The top filter paper in each dish is removed and 12 mites are placed on the bottom disk and the top paper replaced. Before replacing the top of the Petri dish the rim of the dish is smeared with Vaseline to trap any escaping mites.
For evaluation tests there are generally 4 replicates of each dose which are counted at 24 hours. After mites are added to the dishes, the dishes in each replicate are placed in a tray which is then placed in a plastic bag with several wet towels and held at room temperature.
After 24 hours dishes are examined under a dissecting scope. Each dish is opened carefully and the top filter paper removed and saved. A 1/2 cm circle is drawn on the bottom filter paper and the paper gently wet in the area of the circle. All mites from the dish are transferred into the wet circle area and counted. The top cover is replaced on each dish and the dishes set aside for at least 15 minutes. After standing the dishes are examined and the mites remaining on the circle counted. These mites are dead. Percent mortality of the mites is then calculated for each treatment.

[5] = system: Trichostrongylus colubriformis; assay: Control of helminths (T. colubriformis) in infected gerbils; format: in vivo, Trichostrongylus colubriformis (sheep origin) in gerbils
Source text: Each test generally consists of 75 infected gerbils, randomly distributed 2 or 3 per cage (the number of animals per cage is consistent within a specific experiment). Generally, there are 8-9 untreated control gerbils (3-4 cages) per test. The remaining cages are assigned a treatment, usually 1 cage per compound or dose.
Compounds administered in diet are fed for 4 days. Animals treated by gavage or injection are generally treated on only 1 day (usually day 7).
In accordance with this test, gerbils are each orally infected by gavage, with about 400 Trichostrongylus colubriformis infective larvae of sheep origin. The infected animals are then permitted to feed and drink ad libitum for six days. On day 7 the infected gerbils are randomly placed in rodent cages 2 or 3 animals per cage. The animals in each cage are weighed and the feed for each cage weighed. If the treatment to be evaluated is medicated feed, said medicated feed is offered on day 7 and continued through day 11 of the trial. If the treatment to be evaluated is a single oral dose or a parenteral treatment, the animals are given the medication by gavage or injection on day 7 and receive unmedicated feed and water through day 11 of the trial. On day 11 the animals and their feed are weighed. Thereafter the animals are euthanized by CO2 inhalation and their small intestines removed, inverted on application sticks and incubated in tap water at 39° C. for 1-5 hours. The sticks and intestines are then discarded and the worms from each treatment counted to determine the % mortality of the worms as compared to untreated controls.

[6] = system: Dermacentor variabilis; assay: Filter paper contact test against larval stages of the Dogtick; format: in vivo
Protocol: The test procedure used herein is the same procedure described in Example 2, for evaluating the arylpyrroles for control of Psoroptes cuniculi the Rabbit Ear Mite, with the following exceptions:
(1) Unfed larval ticks are obtained from egg masses laid by gravid female ticks removed from dogs and each replicate receives ticks from the same egg mass;
(2) Ticks survive longer than mites in the Petri dishes, thus readings are made 48 hours or longer after the test is initiated; and
(3) When reading the test it may be necessary to blow on the ticks to stimulate their movement.

[7] = 24 h, read-out: 24 hour % Mortality
[8] = 4.0 μg/cm^2, 24 hour, read-out: 24 hour % Mortality

For O=[N+]([O-])c1cc(C(F)(F)F)[nH]c1-c1ccc(Cl)c(Cl)c1 [2-(3,4-Dichlorophenyl)-3-nitro-5-(trifluoromethyl)-pyrrole], the inhibition at 10 ppm [1] was 100%, the mortality at 20 µg/cm2, 20 µg/cm2 [2] was 73% and the “Rating Against C. Elegans 150 ppm” value [3] was 9. The mortality at 4 µg/cm2, 4 µg/cm2 [4, 7] was 100%.
For N#Cc1[nH]c(-c2ccc(Cl)cc2)c(C#N)c1Br [3-Bromo-5-(p-chlorophenyl)pyrrole-2,4-dicarbonitrile], the “% Helminth removal” value ([5]; 500 PPM in diet, 4 days) was 54% and 36% and 50%, the “% Helminth removal” value ([5]; single oral dose 10 mg/kg) was 25% and the “% Helminth removal” value ([5]; single oral dose 25 mg/kg) was 18%. The inhibition at 1 ppm ([1]; 1.0 ppm) was 0%, the inhibition at 10 ppm [1] was 100% and the mortality at 20 µg/cm2, 20 µg/cm2 [2] was 47%. For the same compound, the “Rating Against C. Elegans 150 ppm” value [3] was 9 and the mortality at 4 µg/cm2, 4 µg/cm2 [4, 8] was 48%.
CCOCn1c(Cl)c(Cl)c(C#N)c1-c1ccc(C(F)(F)F)cc1 [4,5-Dichloro-1-(ethoxymethyl)-2-(α,α,α-trifluoro-P-tolyl)pyrrole-3-carbonitrile] gave an inhibition at 10 ppm [1] of 64%, a mortality at 1 µg/cm2, 1 µg/cm2 ([6]; 1.0 μg/cm^2, 48 hour) of 52% and a mortality at 5 µg/cm2, 5 µg/cm2 ([6]; 5.0 μg/cm^2, 48 hour) of 100%. The mortality at 10 µg/cm2, 10 µg/cm2 ([6]; 10.0 μg/cm^2, 48 hour) was 97%, the mortality at 20 µg/cm2, 20 µg/cm2 [2] was 71% and the “Rating Against C. Elegans 150 ppm” value [3] was 9. It also gave a mortality at 0.01 µg/cm2, 0.01 µg/cm2 [4, 7] of 48%, a mortality at 0.1 µg/cm2, 0.1 µg/cm2 ([4]; 0.1 μg/cm^2, 24 hour) of 20% and a mortality at 1 µg/cm2, 1 µg/cm2 ([4]; 1.0 μg/cm^2, 24 hour) of 100%. For the same compound, the mortality at 4 µg/cm2, 4 µg/cm2 [4, 8] was 92% and the mortality at 16 µg/cm2, 16 µg/cm2 ([4]; 16.0 μg/cm^2, 24 hour) was 100%.

— patent US5310938A, “Substituted arylpyrrole compounds” (American Cyanamid Company, priority 1993, dated 1994)
